We go through 20 molecules from US5843889A, “Glycopeptide antibiotic derivatives” (Eli Lilly and Company, priority 1997, dated 1998).

Structures are written as SMILES. In brackets after ≈: the same amount, converted by molar mass.

What all share (assay): MIC, standard broth micro-dilution assay
What all share (type): cell-based
In general terms: Dilution methods test growth across graded concentrations, often in twofold steps.

One assay deals with Entercoccus faecalis 276. As to the method: (§1) The formula I compounds have in vitro and in vivo activity against Gram-positive pathogenic bacteria. The MIC's were determined using a standard broth micro-dilution assay.
Assay [1] deals with Entercoccus faecalis 2041. As for the experimental part:
as §1

Assay [2] relates to Entercoccus gallinarum 245. As for the experimental part: as §1

The term MIC denotes the lowest concentration that inhibits growth of the organism. In the assay on Entercoccus faecalis 276, `CNC(CC(C)C)C(=O)NC1C(=O)NC(CC(N)=O)C(=O)NC2C(=O)NC3C(=O)NC(C(=O)NC(C(=O)O)c4cc(O)cc(O)c4-c4cc3ccc4O)C(OC3CC(C)(N)C(O)C(C)O3)c3ccc(c(Cl)c3)Oc3cc2cc(c3OC2OC(CO)C(O)C(O)C2OC2CC(C)(NCc3ccc(-c4ccc(OC)c(OC)c4)cc3)C(O)C(C)O2)Oc2ccc(cc2Cl)C1O` (stereo not drawn) [Compound 215, 4-[3,4-dimethoxyphenyl]benzyl] registered an MIC of 2 µg/mL (≈ 1.1 µM). In the assay on Entercoccus faecalis 276, `CNC(CC(C)C)C(=O)NC1C(=O)NC(CC(N)=O)C(=O)NC2C(=O)NC3C(=O)NC(C(=O)NC(C(=O)O)c4cc(O)cc(O)c4-c4cc3ccc4O)C(OC3CC(C)(N)C(O)C(C)O3)c3ccc(c(Cl)c3)Oc3cc2cc(c3OC2OC(CO)C(O)C(O)C2OC2CC(C)(NCc3ccc(-c4ccc(C(F)(F)F)cc4)cc3)C(O)C(C)O2)Oc2ccc(cc2Cl)C1O` (stereo not drawn) [Compound 216, 4-[4-trifluromethylphenyl]benzyl] registered an MIC of 0.5 µg/mL (≈ 0.274 µM). The same measure, in the same setting: then `CNC(CC(C)C)C(=O)NC1C(=O)NC(CC(N)=O)C(=O)NC2C(=O)NC3C(=O)NC(C(=O)NC(C(=O)O)c4cc(O)cc(O)c4-c4cc3ccc4O)C(OC3CC(C)(N)C(O)C(C)O3)c3ccc(c(Cl)c3)Oc3cc2cc(c3OC2OC(CO)C(O)C(O)C2OC2CC(C)(NCc3ccncc3)C(O)C(C)O2)Oc2ccc(cc2Cl)C1O` (stereo not drawn) [Compound 26, 4-pyridylmethyl], with at most 0.06 µg/mL. Turning to `CNC(CC(C)C)C(=O)NC1C(=O)NC(CC(N)=O)C(=O)NC2C(=O)NC3C(=O)NC(C(=O)NC(C(=O)O)c4cc(O)cc(O)c4-c4cc3ccc4O)C(OC3CC(C)(N)C(O)C(C)O3)c3ccc(c(Cl)c3)Oc3cc2cc(c3OC2OC(CO)C(O)C(O)C2OC2CC(C)(NCc3c(OC)ccc4ccccc34)C(O)C(C)O2)Oc2ccc(cc2Cl)C1O` (stereo not drawn) [Compound 9, 2-methoxy-1-naphthylmethyl], in the assay with Entercoccus faecalis 276, the MIC was 0.26 µg/mL (≈ 0.148 µM). With `CCN(CC)CCOc1ccc(CNC2(C)CC(OC3C(Oc4c5cc6cc4Oc4ccc(cc4Cl)C(OC4CC(C)(N)C(O)C(C)O4)C4NC(=O)C(NC(=O)C6NC(=O)C(CC(N)=O)NC(=O)C(NC(=O)C(CC(C)C)NC)C(O)c6ccc(c(Cl)c6)O5)c5ccc(O)c(c5)-c5c(O)cc(O)cc5C(C(=O)O)NC4=O)OC(CO)C(O)C3O)OC(C)C2O)cc1` (stereo not drawn) [Compound 83, 4-[2-[N,N-diethylamino]ethoxy]benzyl], the MIC in assay [1] and in assay [2] was 0.5 µg/mL (≈ 0.278 µM) in each case.

As to `CN[C@H](CC(C)C)C(=O)N[C@H]1C(=O)N[C@@H](CC(N)=O)C(=O)N[C@H]2C(=O)N[C@H]3C(=O)N[C@H](C(=O)N[C@H](C(=O)O)c4cc(O)cc(O)c4-c4cc3ccc4O)[C@H](O[C@H]3C[C@](C)(N)[C@@H](O)[C@H](C)O3)c3ccc(c(Cl)c3)Oc3cc2cc(c3O[C@@H]2O[C@H](CO)[C@@H](O)[C@H](O)[C@H]2O[C@H]2C[C@](C)(NCc3ccc(Oc4ccc(Cl)cc4)c([N+](=O)[O-])c3)[C@@H](O)[C@H](C)O2)Oc2ccc(cc2Cl)[C@H]1O` [Compound 94, 4-[4-chlorophenoxy]-3-nitrobenzyl], the results for the MIC in assay [1] and in assay [2] were at most 0.06 µg/mL and 2 µg/mL (≈ 1.08 µM), respectively.

Consider `CNC(CC(C)C)C(=O)NC1C(=O)NC(CC(N)=O)C(=O)NC2C(=O)NC3C(=O)NC(C(=O)NC(C(=O)O)c4cc(O)cc(O)c4-c4cc3ccc4O)C(OC3CC(C)(N)C(O)C(C)O3)c3ccc(cc3)Oc3cc2cc(c3OC2OC(CO)C(O)C(O)C2OC2CC(C)(NCc3ccc(-c4ccccc4)cc3)C(O)C(C)O2)Oc2ccc(cc2)C1O` (stereo not drawn) [Compound 183, 4-phenylbenzyl], for which the MIC in assay [1] was at most 0.06 µg/mL; in assay [2] it was 0.5 µg/mL (≈ 0.296 µM). On to `CNC(CC(C)C)C(=O)NC1C(=O)NC(CC(N)=O)C(=O)NC2C(=O)NC3C(=O)NC(C(=O)NC(C(=O)O)c4cc(O)cc(O)c4-c4cc3ccc4O)C(OC3CC(C)(N)C(O)C(C)O3)c3ccc(c(Cl)c3)Oc3cc2cc(c3OC2OC(CO)C(O)C(O)C2OC2CC(C)(NCCCCc3ccc(OC)cc3)C(O)C(C)O2)Oc2ccc(cc2Cl)C1O` (stereo not drawn) [Compound 172, 4-[4-methoxyphenyl]butyl], for which the MIC in assay [1] is at most 0.06 µg/mL; in assay [2] it was 2 µg/mL (≈ 1.14 µM). In the case of `CNC(CC(C)C)C(=O)NC1C(=O)NC(CC(N)=O)C(=O)NC2C(=O)NC3C(=O)NC(C(=O)NC(C(=O)O)c4cc(O)cc(O)c4-c4cc3ccc4O)C(OC3CC(C)(N)C(O)C(C)O3)c3ccc(c(Cl)c3)Oc3cc2cc(c3OC2OC(CO)C(O)C(O)C2OC2CC(C)(NCC3=CCC(C(C)C)CC3)C(O)C(C)O2)Oc2ccc(cc2Cl)C1O` (stereo not drawn) [Compound 171, 1-cyclohexenyl-4-isopropylmethyl], the MIC is at most 0.06 µg/mL in assay [1] and 8 µg/mL (≈ 4.63 µM) in assay [2]. In the same order, the values of `CNC(CC(C)C)C(=O)NC1C(=O)NC(CC(N)=O)C(=O)NC2C(=O)NC3C(=O)NC(C(=O)NC(C(=O)O)c4cc(O)cc(O)c4-c4cc3ccc4O)C(OC3CC(C)(N)C(O)C(C)O3)c3ccc(c(Cl)c3)Oc3cc2cc(c3OC2OC(CO)C(O)C(O)C2OC2CC(C)(NCc3ccc(CCc4ccccc4)cc3)C(O)C(C)O2)Oc2ccc(cc2Cl)C1O` (stereo not drawn) [Compound 100, 4-[(2-phenyl)ethyl]benzyl] are at most 0.06 µg/mL and 2 µg/mL (≈ 1.12 µM). For `CNC(CC(C)C)C(=O)NC1C(=O)NC(CC(N)=O)C(=O)NC2C(=O)NC3C(=O)NC(C(=O)NC(C(=O)O)c4cc(O)cc(O)c4-c4cc3ccc4O)C(OC3CC(C)(N)C(O)C(C)O3)c3ccc(c(Cl)c3)Oc3cc2cc(c3OC2OC(CO)C(O)C(O)C2OC2CC(C)(NCc3cc(-c4ccccc4)ccc3O)C(O)C(C)O2)Oc2ccc(cc2Cl)C1O` (stereo not drawn) [Compound 85, 2-hydroxy-5-phenylbenzyl] the same measures were at most 0.06 µg/mL and 2 µg/mL (≈ 1.13 µM).

As to `C=CCCCOc1ccc(CNC2(C)CC(OC3C(Oc4c5cc6cc4Oc4ccc(cc4Cl)C(OC4CC(C)(N)C(O)C(C)O4)C4NC(=O)C(NC(=O)C6NC(=O)C(CC(N)=O)NC(=O)C(NC(=O)C(CC(C)C)NC)C(O)c6ccc(c(Cl)c6)O5)c5ccc(O)c(c5)-c5c(O)cc(O)cc5C(C(=O)O)NC4=O)OC(CO)C(O)C3O)OC(C)C2O)cc1` (stereo not drawn) [Compound 226, 4-[4-pentenyloxy]benzyl], the MIC was at most 0.06 µg/mL in assay [1] and 1 µg/mL (≈ 0.566 µM) in assay [2].

For `CCCCCC1CCC(c2ccc(CNC3(C)CC(OC4C(Oc5c6cc7cc5Oc5ccc(cc5Cl)C(OC5CC(C)(N)C(O)C(C)O5)C5NC(=O)C(NC(=O)C7NC(=O)C(CC(N)=O)NC(=O)C(NC(=O)C(CC(C)C)NC)C(O)c7ccc(c(Cl)c7)O6)c6ccc(O)c(c6)-c6c(O)cc(O)cc6C(C(=O)O)NC5=O)OC(CO)C(O)C4O)OC(C)C3O)cc2)CC1` (stereo not drawn) [Compound 34, 4-[4-pentylcyclohexyl]benzyl], the figures for the MIC in assay [1] and in assay [2] were 8 µg/mL (≈ 4.36 µM) and 4 µg/mL (≈ 2.18 µM), respectively. With `CNC(CC(C)C)C(=O)NC1C(=O)NC(CC(N)=O)C(=O)NC2C(=O)NC3C(=O)NC(C(=O)NC(C(=O)O)c4cc(O)cc(O)c4-c4cc3ccc4O)C(OC3CC(C)(N)C(O)C(C)O3)c3ccc(c(Cl)c3)Oc3cc2cc(c3OC2OC(CO)C(O)C(O)C2OC2CC(C)(NCc3cncc(-c4ccccc4)c3)C(O)C(C)O2)Oc2ccc(cc2Cl)C1O` (stereo not drawn) [Compound 101, 3-[5-phenyl]pyridinylmethyl], the MIC in assay [1] was at most 0.06 µg/mL; in assay [2], 8 µg/mL (≈ 4.55 µM).

With `CN[C@H](CC(C)C)C(=O)N[C@H]1C(=O)N[C@@H](CC(N)=O)C(=O)N[C@H]2C(=O)N[C@H]3C(=O)N[C@H](C(=O)N[C@H](C(=O)O)c4cc(O)cc(O)c4-c4cc3ccc4O)[C@H](O[C@H]3C[C@](C)(N)[C@@H](O)[C@H](C)O3)c3ccc(c(Cl)c3)Oc3cc2cc(c3O[C@@H]2O[C@H](CO)[C@@H](O)[C@H](O)[C@H]2O[C@H]2C[C@](C)(NCc3ccc(Oc4ccc(C)cc4)cc3)[C@@H](O)[C@H](C)O2)Oc2ccc(cc2Cl)[C@H]1O` [Compound 95, 4-[4-methylphenoxy]benzyl], the MIC in assay [1] was at most 0.06 µg/mL; in assay [2], 1 µg/mL (≈ 0.559 µM). Regarding `CNC(CC(C)C)C(=O)NC1C(=O)NC(CC(N)=O)C(=O)NC2C(=O)NC3C(=O)NC(C(=O)NC(C(=O)O)c4cc(O)cc(O)c4-c4cc3ccc4O)C(OC3CC(C)(N)C(O)C(C)O3)c3ccc(c(Cl)c3)Oc3cc2cc(c3OC2OC(CO)C(O)C(O)C2OC2CC(C)(NCCCC3CCCC3)C(O)C(C)O2)Oc2ccc(cc2Cl)C1O` (stereo not drawn) [Compound 208, 3-[cyclopentyl]propyl], the MIC in assay [1] is at most 0.06 µg/mL; in assay [2], 2 µg/mL (≈ 1.17 µM).

Take `CNC(CC(C)C)C(=O)NC1C(=O)NC(CC(N)=O)C(=O)NC2C(=O)NC3C(=O)NC(C(=O)NC(C(=O)O)c4cc(O)cc(O)c4-c4cc3ccc4O)C(OC3CC(C)(N)C(O)C(C)O3)c3ccc(c(Cl)c3)Oc3cc2cc(c3OC2OC(CO)C(O)C(O)C2OC2CC(C)(NCc3ccc4c(c3)CCCC4)C(O)C(C)O2)Oc2ccc(cc2Cl)C1O` (stereo not drawn) [Compound 168]: the minimum inhibitory concentration (MIC) was at most 0.06 µg/mL in assay [1] and 2 µg/mL (≈ 1.15 µM) in assay [2]. Consider `CNC(CC(C)C)C(=O)NC1C(=O)NC(CC(N)=O)C(=O)NC2C(=O)NC3C(=O)NC(C(=O)NC(C(=O)O)c4cc(O)cc(O)c4-c4cc3ccc4O)C(OC3CC(C)(N)C(O)C(C)O3)c3ccc(c(Cl)c3)Oc3cc2cc(c3OC2OC(CO)C(O)C(O)C2OC2CC(C)(NCc3ccc(-c4ccc(C)c(C)c4)cc3)C(O)C(C)O2)Oc2ccc(cc2Cl)C1O` (stereo not drawn) [Compound 221, 4-[3,4-dimethylphenyl]benzyl], for which the MIC was at most 0.06 µg/mL in assay [1] and 2 µg/mL (≈ 1.12 µM) in assay [2].

As for `CNC(CC(C)C)C(=O)NC1C(=O)NC(CC(N)=O)C(=O)NC2C(=O)NC3C(=O)NC(C(=O)NC(C(=O)O)c4cc(O)cc(O)c4-c4cc3ccc4O)C(OC3CC(C)(N)C(O)C(C)O3)c3ccc(c(Cl)c3)Oc3cc2cc(c3OC2OC(CO)C(O)C(O)C2OC2CC(C)(NCCCCC#Cc3ccccc3)C(O)C(C)O2)Oc2ccc(cc2Cl)C1O` (stereo not drawn) [Compound 235, 6-phenyl-5-hexynyl], the MIC in assay [1] is at most 0.06 µg/mL; in assay [2], 1 µg/mL (≈ 0.572 µM). `CNC(CC(C)C)C(=O)NC1C(=O)NC(CC(N)=O)C(=O)NC2C(=O)NC3C(=O)NC(C(=O)NC(C(=O)O)c4cc(O)cc(O)c4-c4cc3ccc4O)C(OC3CC(C)(N)C(O)C(C)O3)c3ccc(c(Cl)c3)Oc3cc2cc(c3OC2OC(CO)C(O)C(O)C2OC2CC(C)(NCc3ccc(OCc4ccc([N+](=O)[O-])cc4)cc3)C(O)C(C)O2)Oc2ccc(cc2Cl)C1O` (stereo not drawn) [Compound 131, 4-[4-nitrobenzyloxy]benzyl]: the values for the minimum inhibitory concentration (MIC) in assay [1] and in assay [2] were at most 0.06 µg/mL and 2 µg/mL (≈ 1.09 µM), respectively.
